Paper PMC5218480 (PLoS ONE, 2017)

System: MV-4-11 cells
Experiment: Gene expression microarray analysis (Affymetrix PrimeView) and GSEA
Assay type: cell-based, human
Design: RFU PODN (11730768_x_at) / Fold change /veh PODN (11730768_x_at) / RFU LINC00158 (11744669_a_at) / Fold change /veh LINC00158 (11744669_a_at) / RFU DUSP10 (11751237_a_at) / Fold change /veh DUSP10 (11751237_a_at) / RFU ID3 (11757404_x_at) / Fold change /veh ID3 (11757404_x_at) / RFU PLEKHG5 (11737974_s_at) / Fold change /veh PLEKHG5 (11737974_s_at) / RFU LRRC4B (11730491_at) / Fold change /veh LRRC4B (11730491_at) / RFU GIMAP4 (11747438_a_at) / Fold change /veh GIMAP4 (11747438_a_at) / RFU KRT8 (11758183_x_at) / Fold change /veh KRT8 (11758183_x_at) / RFU CNN1 (11734310_a_at) / Fold change /veh CNN1 (11734310_a_at) / RFU VPS37D (11726825_at) / Fold change /veh VPS37D (11726825_at) / RFU C10orf10 (11716522_x_at) / Fold change /veh C10orf10 (11716522_x_at) / RFU KIR2DL2 /// KIR2DL4 /// KIR2DL5A /// KIR2DL5B /// KIR2DS1 /// KIR2DS2 /// KIR2DS3 /// KIR2DS4 /// KIR3DL3 /// KIR3DL3 /// KIR3DS1 (11738374_at) / Fold change /veh KIR2DL2 /// KIR2DL4 /// KIR2DL5A /// KIR2DL5B /// KIR2DS1 /// KIR2DS2 /// KIR2DS3 /// KIR2DS4 /// KIR3DL3 /// KIR3DL3 /// KIR3DS1 (11738374_at) / RFU C1QL1 (11718748_at) / Fold change /veh C1QL1 (11718748_at) / RFU TMPRSS4 (11747572_a_at) / Fold change /veh TMPRSS4 (11747572_a_at) / RFU HAMP (11756126_x_at) / Fold change /veh HAMP (11756126_x_at) / RFU RNFT2 (11725882_a_at) / Fold change /veh RNFT2 (11725882_a_at) / RFU NR4A2 (11747474_a_at) / Fold change /veh NR4A2 (11747474_a_at) / RFU ABCC12 (11746883_a_at) / Fold change /veh ABCC12 (11746883_a_at) / RFU TMEM136 (11760407_x_at) / Fold change /veh TMEM136 (11760407_x_at) / RFU CLDN22 /// WWC2 (11732394_at) / Fold change /veh CLDN22 /// WWC2 (11732394_at) / RFU HLA-DPB1 (11760878_x_at) / Fold change /veh HLA-DPB1 (11760878_x_at) / RFU SPINT1 (11716480_a_at) / Fold change /veh SPINT1 (11716480_a_at) / RFU GAP43 (11754022_s_at) / Fold change /veh GAP43 (11754022_s_at) / RFU A4GNT (11735810_at) / Fold change /veh A4GNT (11735810_at) / RFU PRB3 (11715151_x_at) / Fold change /veh PRB3 (11715151_x_at) / RFU TUBB4B (11761932_at) / Fold change /veh TUBB4B (11761932_at) / RFU CAPN14 (11732068_a_at) / Fold change /veh CAPN14 (11732068_a_at) / RFU TMCC2 (11721928_a_at) / Fold change /veh TMCC2 (11721928_a_at) / RFU IRGQ (11745062_a_at) / Fold change /veh IRGQ (11745062_a_at) / RFU FAM174B (11720279_a_at) / Fold change /veh FAM174B (11720279_a_at) / RFU TMPRSS4 (11748680_a_at) / Fold change /veh TMPRSS4 (11748680_a_at) / RFU FAM212B (11763350_a_at) / Fold change /veh FAM212B (11763350_a_at) / RFU PLEKHG5 (11743358_a_at) / Fold change /veh PLEKHG5 (11743358_a_at) / RFU ZSCAN30 (11745921_a_at) / Fold change /veh ZSCAN30 (11745921_a_at) / RFU CMKLR1 (11741424_a_at) / Fold change /veh CMKLR1 (11741424_a_at) / RFU LOC101060620 /// MAPK8IP1 (11723275_at) / Fold change /veh LOC101060620 /// MAPK8IP1 (11723275_at) / RFU SPTSSB (11747773_x_at) / Fold change /veh SPTSSB (11747773_x_at) / RFU PRSS12 (11739890_at) / Fold change /veh PRSS12 (11739890_at) / RFU BIN1 (11741810_x_at) / Fold change /veh BIN1 (11741810_x_at) / RFU WNT11 (11732464_a_at) / Fold change /veh WNT11 (11732464_a_at) / RFU C10orf10 (11716521_a_at) / Fold change /veh C10orf10 (11716521_a_at) / RFU C5orf56 (11738089_at) / Fold change /veh C5orf56 (11738089_at) / RFU CYB561 (11721691_x_at) / Fold change /veh CYB561 (11721691_x_at) / RFU ANKRD19P (11752326_a_at) / Fold change /veh ANKRD19P (11752326_a_at) / RFU OR2T12 /// OR2T33 /// OR2T8 (11738714_s_at) / Fold change /veh OR2T12 /// OR2T33 /// OR2T8 (11738714_s_at) / RFU VCAN (11748164_a_at) / Fold change /veh VCAN (11748164_a_at) / RFU JSRP1 (11732532_at) / Fold change /veh JSRP1 (11732532_at) / RFU KRTAP10-11 (11738290_x_at) / Fold change /veh KRTAP10-11 (11738290_x_at) / RFU MYO3A (11730013_a_at) / Fold change /veh MYO3A (11730013_a_at) / RFU EBF3 (11725865_a_at) / Fold change /veh EBF3 (11725865_a_at) / RFU CAMK2N1 (11719241_x_at) / Fold change /veh CAMK2N1 (11719241_x_at) / RFU C5orf56 (11738088_a_at) / Fold change /veh C5orf56 (11738088_a_at) / RFU OLFML3 (11715873_a_at) / Fold change /veh OLFML3 (11715873_a_at) / RFU LOC100653217 /// NTM (11731650_a_at) / Fold change /veh LOC100653217 /// NTM (11731650_a_at) / RFU MAPK11 (11762145_a_at) / Fold change /veh MAPK11 (11762145_a_at) / RFU FIZ1 (11724087_x_at) / Fold change /veh FIZ1 (11724087_x_at) / RFU OASL (11726364_x_at) / Fold change /veh OASL (11726364_x_at) / RFU SOX15 (11748057_x_at) / Fold change /veh SOX15 (11748057_x_at) / RFU CD79A (11719716_a_at) / Fold change /veh CD79A (11719716_a_at) / RFU HIST1H1D (11736915_at) / Fold change /veh HIST1H1D (11736915_at) / RFU CASKIN2 (11723855_a_at) / Fold change /veh CASKIN2 (11723855_a_at) / RFU LOC730098 (11760151_x_at) / Fold change /veh LOC730098 (11760151_x_at) / RFU OR4N2 (11742367_at) / Fold change /veh OR4N2 (11742367_at) / RFU PRRT2 (11749266_a_at) / Fold change /veh PRRT2 (11749266_a_at) / RFU SNX32 (11753110_a_at) / Fold change /veh SNX32 (11753110_a_at) / RFU CDHR5 (11726645_a_at) / Fold change /veh CDHR5 (11726645_a_at) / RFU RCAN1 (11760418_a_at) / Fold change /veh RCAN1 (11760418_a_at) / RFU FAM167A (11723789_a_at) / Fold change /veh FAM167A (11723789_a_at) / RFU FAM26E (11764081_at) / Fold change /veh FAM26E (11764081_at) / RFU ISYNA1 (11749810_s_at) / Fold change /veh ISYNA1 (11749810_s_at) / RFU ACY1 (11761880_at) / Fold change /veh ACY1 (11761880_at) / RFU 11764098_at / Fold change /veh 11764098_at / RFU SAMD14 (11745864_x_at) / Fold change /veh SAMD14 (11745864_x_at) / RFU NPB (11741838_a_at) / Fold change /veh NPB (11741838_a_at) / RFU TMPRSS6 (11731388_a_at) / Fold change /veh TMPRSS6 (11731388_a_at) / RFU KRTAP10-2 (11738614_at) / Fold change /veh KRTAP10-2 (11738614_at) / RFU ARHGAP8 /// PRR5-ARHGAP8 (11727945_x_at) / Fold change /veh ARHGAP8 /// PRR5-ARHGAP8 (11727945_x_at) / RFU KRTAP5-7 /// NADSYN1 (11734609_at) / Fold change /veh KRTAP5-7 /// NADSYN1 (11734609_at) / RFU RASL12 (11751679_a_at) / Fold change /veh RASL12 (11751679_a_at) / RFU CDKN2B (11736163_a_at) / Fold change /veh CDKN2B (11736163_a_at) / RFU PRF1 (11729649_at) / Fold change /veh PRF1 (11729649_at) / RFU, ZNF638 /// ZNF638-IT1 / Fold change vs veh, ZNF638 /// ZNF638-IT1 / RFU, PANK3 / Fold change vs veh, PANK3 / RFU, SH3YL1 / Fold change vs veh, SH3YL1 / RFU, ZEB2 / Fold change vs veh, ZEB2 / RFU, NRIP1 / Fold change vs veh, NRIP1 / RFU, PTTG1IP / Fold change vs veh, PTTG1IP / RFU, CAPN2 / Fold change vs veh, CAPN2 / RFU, MED14 / Fold change vs veh, MED14 / RFU, SNORA58 / Fold change vs veh, SNORA58 / RFU, C1orf63 / Fold change vs veh, C1orf63 / RFU, LRRFIP1 / Fold change vs veh, LRRFIP1 / RFU, NDUFAF7 / Fold change vs veh, NDUFAF7 / RFU, SLC12A2 / Fold change vs veh, SLC12A2 / RFU, IBTK / Fold change vs veh, IBTK / RFU, ESF1 / Fold change vs veh, ESF1 / Fold change vs veh, TMEM50B / RFU, TAOK1 / Fold change vs veh, TAOK1 / RFU, ACBD3 / Fold change vs veh, ACBD3 / RFU, TMA16 / Fold change vs veh, TMA16 / RFU, RWDD3 / Fold change vs veh, RWDD3 / RFU, BCAT1 / Fold change vs veh, BCAT1 / RFU, EDEM3 / Fold change vs veh, EDEM3 / RFU, TMEM33 / Fold change vs veh, TMEM33 / RFU, WDR75 / Fold change vs veh, WDR75 / RFU, AHCTF1 / Fold change vs veh, AHCTF1 / RFU, TFRC / Fold change vs veh, TFRC / RFU, ZDHHC17 / Fold change vs veh, ZDHHC17 / RFU, NOM1 / Fold change vs veh, NOM1 / RFU, ARL8B / Fold change vs veh, ARL8B / RFU, ZBTB11 / Fold change vs veh, ZBTB11 / RFU, TAMM41 / Fold change vs veh, TAMM41 / RFU, KIAA1704 /// LOC100996395 / Fold change vs veh, KIAA1704 /// LOC100996395 / RFU, ING1 / Fold change vs veh, ING1 / RFU, TRMT61B / Fold change vs veh, TRMT61B / RFU, FUBP3 / Fold change vs veh, FUBP3 / RFU, TP53 / Fold change vs veh, TP53 / RFU, TNKS2 / Fold change vs veh, TNKS2 / RFU, ZFP14 / Fold change vs veh, ZFP14 / RFU, ACTR2 / Fold change vs veh, ACTR2 / RFU, PPP3R1 / Fold change vs veh, PPP3R1 / RFU, PIK3R1 / Fold change vs veh, PIK3R1 / RFU, HNRNPA1 / Fold change vs veh, HNRNPA1 / RFU, RNF170 / Fold change vs veh, RNF170 / RFU, ZNF28 / Fold change vs veh, ZNF28 / RFU, RNGTT / Fold change vs veh, RNGTT / RFU, OGT / Fold change vs veh, OGT / RFU, BRD1 / Fold change vs veh, BRD1 / RFU, MARS / Fold change vs veh, MARS / RFU, ZNF655 / Fold change vs veh, ZNF655 / RFU, FAHD1 / Fold change vs veh, FAHD1 / RFU, BDP1 / Fold change vs veh, BDP1 / RFU, LRRCC1 / Fold change vs veh, LRRCC1 / RFU, ARID1A / Fold change vs veh, ARID1A / RFU, ZNF146 / Fold change vs veh, ZNF146 / RFU, ZNF330 / Fold change vs veh, ZNF330 / RFU, GPN3 / Fold change vs veh, GPN3 / RFU, C9orf123 / Fold change vs veh, C9orf123 / RFU, N4BP2L2 / Fold change vs veh, N4BP2L2 / RFU, ARFIP1 / Fold change vs veh, ARFIP1 / RFU, FAM179B / Fold change vs veh, FAM179B / RFU, BCL10 / Fold change vs veh, BCL10 / RFU, UHRF1BP1L / Fold change vs veh, UHRF1BP1L / RFU, BET1 / Fold change vs veh, BET1 / RFU, CNOT2 / Fold change vs veh, CNOT2 / RFU, ZNF268 / Fold change vs veh, ZNF268 / Fold change vs veh, ZNF507 / RFU, DGCR2 / Fold change vs veh, DGCR2 / RFU, WDSUB1 / Fold change vs veh, WDSUB1 / Fold change vs veh, HSP90B1 /// MIR3652 / RFU, ADSS / Fold change vs veh, ADSS / RFU, GK / Fold change vs veh, GK / RFU, ZNF148 / Fold change vs veh, ZNF148 / RFU, TAF9 / Fold change vs veh, TAF9 / RFU, SLC1A5 / Fold change vs veh, SLC1A5 / RFU, SLMO2 / Fold change vs veh, SLMO2 / RFU, ABCC4 / Fold change vs veh, ABCC4 / RFU, LOC101060439 /// RAP1B / Fold change vs veh, LOC101060439 /// RAP1B / RFU, RFX7 / Fold change vs veh, RFX7 / RFU, GTPBP10 / Fold change vs veh, GTPBP10 / RFU, CNEP1R1 / Fold change vs veh, CNEP1R1 / RFU, BIVM-ERCC5 /// ERCC5 / Fold change vs veh, BIVM-ERCC5 /// ERCC5 / RFU, ILF3 / Fold change vs veh, ILF3 / RFU 11762660_at / Fold change /veh 11762660_at / RFU VCAN (11757783_s_at) / Fold change /veh VCAN (11757783_s_at) / RFU DDX43 (11728927_at) / Fold change /veh DDX43 (11728927_at) / RFU KRT8 (11758188_x_at) / Fold change /veh KRT8 (11758188_x_at) / RFU NKD1 (11759106_at) / Fold change /veh NKD1 (11759106_at) / RFU SRD5A1 (11742802_a_at) / Fold change /veh SRD5A1 (11742802_a_at) / RFU TPSAB1 /// TPSB2 (11721975_s_at) / Fold change /veh TPSAB1 /// TPSB2 (11721975_s_at) / RFU GSTM3 (11746129_a_at) / Fold change /veh GSTM3 (11746129_a_at) / RFU IL23R (11737362_x_at) / Fold change /veh IL23R (11737362_x_at) / RFU TMEM51 (11727254_a_at) / Fold change /veh TMEM51 (11727254_a_at) / RFU PIWIL2 (11732686_x_at) / Fold change /veh PIWIL2 (11732686_x_at) / RFU ORM1 (11744905_x_at) / Fold change /veh ORM1 (11744905_x_at) / RFU CCDC152 (11743942_at) / Fold change /veh CCDC152 (11743942_at) / RFU ECM1 (11717891_a_at) / Fold change /veh ECM1 (11717891_a_at) / RFU IL23R (11748794_a_at) / Fold change /veh IL23R (11748794_a_at) / RFU TNFAIP8L3 (11732012_x_at) / Fold change /veh TNFAIP8L3 (11732012_x_at) / RFU MBOAT4 (11741988_at) / Fold change /veh MBOAT4 (11741988_at) / RFU 11764193_at / Fold change /veh 11764193_at / RFU TMEM53 (11763286_at) / Fold change /veh TMEM53 (11763286_at) / RFU MAGEB2 (11727129_at) / Fold change /veh MAGEB2 (11727129_at) / RFU TMEM200A (11744735_a_at) / Fold change /veh TMEM200A (11744735_a_at) / RFU CCDC152 (11751479_a_at) / Fold change /veh CCDC152 (11751479_a_at) / RFU FAM211A (11726209_a_at) / Fold change /veh FAM211A (11726209_a_at) / RFU RGS16 (11746705_a_at) / Fold change /veh RGS16 (11746705_a_at) / RFU VCAN (11755009_s_at) / Fold change /veh VCAN (11755009_s_at) / RFU RHOB (11743442_s_at) / Fold change /veh RHOB (11743442_s_at) / RFU RGS16 (11720943_a_at) / Fold change /veh RGS16 (11720943_a_at) / RFU RGS16 (11720944_at) / Fold change /veh RGS16 (11720944_at) / RFU, VPS4B / Fold change vs veh, VPS4B / RFU, CREB1 / Fold change vs veh, CREB1 / RFU, DNAJC13 / Fold change vs veh, DNAJC13 / RFU, GNAQ / Fold change vs veh, GNAQ / RFU, CDK5R1 / Fold change vs veh, CDK5R1 / RFU, ZRANB3 / Fold change vs veh, ZRANB3 / RFU, CUL4A / Fold change vs veh, CUL4A / RFU, CCNY / Fold change vs veh, CCNY / RFU, UFL1 / Fold change vs veh, UFL1 / RFU, COG3 / Fold change vs veh, COG3 / RFU, DIAPH2 / Fold change vs veh, DIAPH2 / RFU, SKA2 / Fold change vs veh, SKA2 / RFU, AFF3 / Fold change vs veh, AFF3 / RFU, LMF1 / Fold change vs veh, LMF1 / RFU, IPO11 / Fold change vs veh, IPO11 / RFU, DFFB / Fold change vs veh, DFFB / RFU, FOXP1 / Fold change vs veh, FOXP1 / RFU, CARD8 / Fold change vs veh, CARD8 / RFU, STRN3 / Fold change vs veh, STRN3 / RFU, ADK / Fold change vs veh, ADK / RFU, RASSF2 / Fold change vs veh, RASSF2 / RFU, WIPF1 / Fold change vs veh, WIPF1 / RFU, LARP1B / Fold change vs veh, LARP1B / RFU, RASA1 / Fold change vs veh, RASA1 / RFU, RB1 / Fold change vs veh, RB1 / RFU, PPFIA1 / Fold change vs veh, PPFIA1 / RFU, MAT2A / Fold change vs veh, MAT2A / RFU, CCT5 / Fold change vs veh, CCT5 / RFU, WDR92 / Fold change vs veh, WDR92 / RFU, CUX1 / Fold change vs veh, CUX1 / RFU, TTC7A / Fold change vs veh, TTC7A / RFU, TMEM135 / Fold change vs veh, TMEM135 / RFU, DEPTOR / Fold change vs veh, DEPTOR / RFU, CPM / Fold change vs veh, CPM / RFU, DNAJB6 / Fold change vs veh, DNAJB6 / RFU, CACNA2D3 / Fold change vs veh, CACNA2D3 / RFU, DTX4 / Fold change vs veh, DTX4 / RFU, TFCP2 / Fold change vs veh, TFCP2 / RFU, GMCL1 /// GMCL1P1 / Fold change vs veh, GMCL1 /// GMCL1P1 / RFU, AEBP2 / Fold change vs veh, AEBP2 / RFU, SNHG1 /// SNORD22 /// SNORD25 /// SNORD26 /// SNORD27 /// SNORD28 /// SNORD29 /// SNORD31 / Fold change vs veh, SNHG1 /// SNORD22 /// SNORD25 /// SNORD26 /// SNORD27 /// SNORD28 /// SNORD29 /// SNORD31 / Fold change (Aza/veh), C12orf56 (ProbeSet 11735607_a_at) / Fold change (ACY-1035/veh), C12orf56 (ProbeSet 11735607_a_at) / Fold change (Aza/veh), FGFR1OP (ProbeSet 11751329_s_at) / Fold change (ACY-1035/veh), FGFR1OP (ProbeSet 11751329_s_at) / Fold change (Aza/veh), VPS36 (ProbeSet 11739960_a_at) / Fold change (ACY-1035/veh), VPS36 (ProbeSet 11739960_a_at) / RFU SYPL1 (11715823_x_at) / Fold change /veh SYPL1 (11715823_x_at) / RFU IGFBP7 (11715501_s_at) / Fold change /veh IGFBP7 (11715501_s_at) / RFU REEP3 (11722064_at) / Fold change /veh REEP3 (11722064_at) / RFU IGLL1 (11728026_x_at) / Fold change /veh IGLL1 (11728026_x_at): dose or concentration left out as unconfirmed
Conditions: ProbeSet 11727827_x_at; LIST B

Structure (SMILES): Nc1ncn([C@@H]2O[C@H](CO)[C@@H](O)[C@H]2O)c(=O)n1 [azacitidine]
- Fold change vs veh, NDUFAF7: 0.98
